From the NIST ThermoML archive (doi:10.1016/j.jct.2012.01.005)
Numbers after ± are expanded uncertainties.

Tests used:
[1] = refractive index (Na D-line) (dimensionless); conditions: 298.15 K; 101.33 kPa; Liquid; Standard Abbe refractometry
[2] = Liquid; for mass density: 298.15 K, 101.33 kPa, Buoyancy - hydrostatic balance

ClCC1CO1 (stereo not drawn) [1-chloro-2,3-epoxypropane]
refractive index [1]: 1.434 ± 0.002 | mass density [2]: 1175.9 ± 12 kg/m3 | vapor or sublimation pressure ([2]; 370.95 K, Visual): 55.99 ± 2.1 kPa | vapor or sublimation pressure ([2]; 384.15 K, Visual): 88.66 ± 3.4 kPa | vapor or sublimation pressure ([2]; 389.35 K, Visual): 100 ± 4.2 kPa

CCCC(=O)OCC1CO1 (stereo not drawn) [glycidyl butyrate]
refractive index [1]: 1.429 ± 0.002 | mass density [2]: 1047 ± 10 kg/m3 | vapor or sublimation pressure ([2]; 407.85 K, Closed cell (Static) method): 15.74 ± 1.2 kPa | vapor or sublimation pressure ([2]; 420.25 K, Closed cell (Static) method): 23.87 ± 1.2 kPa | vapor or sublimation pressure ([2]; 427.85 K, Closed cell (Static) method): 29.87 ± 1.3 kPa | vapor or sublimation pressure ([2]; 434.15 K, Closed cell (Static) method): 36.41 ± 1.3 kPa | vapor or sublimation pressure ([2]; 439.15 K, Closed cell (Static) method): 41.34 ± 1.3 kPa | vapor or sublimation pressure ([2]; 444.25 K, Closed cell (Static) method): 46.67 ± 1.3 kPa | vapor or sublimation pressure ([2]; 449.15 K, Closed cell (Static) method): 55.99 ± 2.8 kPa | vapor or sublimation pressure ([2]; 449.25 K, Closed cell (Static) method): 54.4 ± 1.3 kPa | vapor or sublimation pressure ([2]; 453.85 K, Closed cell (Static) method): 62.67 ± 1.3 kPa | vapor or sublimation pressure ([2]; 458.15 K, Closed cell (Static) method): 69.6 ± 1.3 kPa | vapor or sublimation pressure ([2]; 460.45 K, Closed cell (Static) method): 74.67 ± 1.3 kPa | vapor or sublimation pressure ([2]; 464.55 K, Closed cell (Static) method): 82.67 ± 1.3 kPa | vapor or sublimation pressure ([2]; 466.55 K, Closed cell (Static) method): 87.33 ± 1.3 kPa | vapor or sublimation pressure ([2]; 467.15 K, Closed cell (Static) method): 88.66 ± 4.1 kPa | vapor or sublimation pressure ([2]; 468.75 K, Closed cell (Static) method): 93.33 ± 1.4 kPa | vapor or sublimation pressure ([2]; 471.15 K, Closed cell (Static) method): 100 ± 1.4 kPa
